Legend:
human Nav1.7 = human Nav1.7 (Homo sapiens (Human), UniProt Q15858); assay: FRET-based membrane potential assay, recombinant human sodium channel Nav1.7; assay type: cell-based; details: HEK293 cells stably expressing recombinant human Nav1.7; depolarization with veratridine (EC80) + scorpion venom
Method in brief: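 IC50 derived by four-parameter Hill fit of percent inhibition of depolarization, measured as peak F440-480/F565-625 ratio over baseline. Stable human Nav1.7 HEK293 cells, dye-loaded with CC2-DMPE and DiSBAC2(3)/VABSC-1 at room temperature, received compound 3 min ahead of veratridine (EC80) plus scorpion venom.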

[1] = tested on: MIA-induced osteoarthritic pain in rats; assay: Osteoarthritic (OA) pain induced by sodium monoiodoacetate (MIA), hind limb grip force; assay type: in vivo, rat; details: male Sprague Dawley rats, grip force 20 days after MIA injection
Protocol: Osteoarthritic (OA) Pain Induced by Sodium Monoiodoacetate (MIA)
Pain behavior was assessed by measurement of hind limb grip force (GF) in adult osteoarthritic rats. Male Sprague Dawley rats, obtained from Charles River Laboratories, (Wilmington, Mass.), weighing 150-175 g, were injected in the unilateral knee join with a single intra-articular injection of sodium monoiodoacetate (MIA, 3 mg/rat). All rats were tested at 20 days following MIA injection. A behavioral measure of activity-induced pain was carried out. Measurements of the peak hind limb grip force were conducted by recording the maximum compressive force (CFmax), in grams of force, exerted on a hind limb strain gauge setup, in a commercially available grip force measurement system (Columbus Instruments, Columbus, Ohio).
During testing, each rat was gently restrained by grasping it around its rib cage and then allowed to grasp the wire mesh frame attached to the strain gauge. The experimenter then moved the animal in a rostral-to-caudal direction until the grip was broken. Each rat was sequentially tested twice at an approximately 2-3 minute interval to obtain a raw mean grip force (CFmax). This raw mean grip force data was in turn converted to a maximum hindlimb cumulative compressive force (CFmax), as the grams of force/kg of body weight, for each animal.
For evaluating the compound effects, the hind limb grip force was conducted 20 days following the intra-articular injection of MIA. A group of age-matched nave (not injected with MIA) animals was added as a comparator to the drug-dosed groups. The vehicle control response for each group of MIA-treated animals was defined as the 0% response (0% effect), whereas the nave control group was defined as the normal response and as 100% effect. The % effect for each dose group was expressed as % return of response to normalcy, compared to the nave group. A percent maximal possible effect (% MPE) of testing compound was calculated according to the formula: (Treatment CFmax−Vehicle CFmax)/Vehicle CFmax]×100). Higher % effect numbers indicate increased relief from the pain in the model, with 100% indicating a return to the level of response seen in normal (non-osteoarthritic) animals. All experiments evaluating drug effects in this model were conducted in a randomized blinded fashion.
The animals were housed in Association for Assessment and Accreditation of Laboratory Animal Care (AAALAC) approved facilities at AbbVie Inc. in a temperature-regulated environment under a controlled 12-hour light-dark cycle, with lights on at 6:00 a.m. Food and water were available ad libitum at all times except during testing. All testing was done following procedures outlined in protocols approved by AbbVie Inc.'s Institutional Animal Care and Use Committee.

human Nav1.8 = human Nav1.8 (Homo sapiens (Human), UniProt Q9Y5Y9); assay: FRET-based membrane potential assay, recombinant human sodium channel Nav1.8; assay type: cell-based; details: HEK293 cells stably expressing recombinant human Nav1.8; depolarization with veratridine (EC80) + scorpion venom
Method in brief: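 HEK293 cells stably expressing Nav1.8 were loaded with CC2-DMPE/DiSBAC2(3) FRET voltage dyes. Compounds were added 3 min before depolarization with EC80 veratridine plus scorpion venom. The F440-480/F565-625 ratio was read on FLIPR; IC50 came from four-parameter Hill fits.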

human Nav1.7, sequence (Q15858 whole entry): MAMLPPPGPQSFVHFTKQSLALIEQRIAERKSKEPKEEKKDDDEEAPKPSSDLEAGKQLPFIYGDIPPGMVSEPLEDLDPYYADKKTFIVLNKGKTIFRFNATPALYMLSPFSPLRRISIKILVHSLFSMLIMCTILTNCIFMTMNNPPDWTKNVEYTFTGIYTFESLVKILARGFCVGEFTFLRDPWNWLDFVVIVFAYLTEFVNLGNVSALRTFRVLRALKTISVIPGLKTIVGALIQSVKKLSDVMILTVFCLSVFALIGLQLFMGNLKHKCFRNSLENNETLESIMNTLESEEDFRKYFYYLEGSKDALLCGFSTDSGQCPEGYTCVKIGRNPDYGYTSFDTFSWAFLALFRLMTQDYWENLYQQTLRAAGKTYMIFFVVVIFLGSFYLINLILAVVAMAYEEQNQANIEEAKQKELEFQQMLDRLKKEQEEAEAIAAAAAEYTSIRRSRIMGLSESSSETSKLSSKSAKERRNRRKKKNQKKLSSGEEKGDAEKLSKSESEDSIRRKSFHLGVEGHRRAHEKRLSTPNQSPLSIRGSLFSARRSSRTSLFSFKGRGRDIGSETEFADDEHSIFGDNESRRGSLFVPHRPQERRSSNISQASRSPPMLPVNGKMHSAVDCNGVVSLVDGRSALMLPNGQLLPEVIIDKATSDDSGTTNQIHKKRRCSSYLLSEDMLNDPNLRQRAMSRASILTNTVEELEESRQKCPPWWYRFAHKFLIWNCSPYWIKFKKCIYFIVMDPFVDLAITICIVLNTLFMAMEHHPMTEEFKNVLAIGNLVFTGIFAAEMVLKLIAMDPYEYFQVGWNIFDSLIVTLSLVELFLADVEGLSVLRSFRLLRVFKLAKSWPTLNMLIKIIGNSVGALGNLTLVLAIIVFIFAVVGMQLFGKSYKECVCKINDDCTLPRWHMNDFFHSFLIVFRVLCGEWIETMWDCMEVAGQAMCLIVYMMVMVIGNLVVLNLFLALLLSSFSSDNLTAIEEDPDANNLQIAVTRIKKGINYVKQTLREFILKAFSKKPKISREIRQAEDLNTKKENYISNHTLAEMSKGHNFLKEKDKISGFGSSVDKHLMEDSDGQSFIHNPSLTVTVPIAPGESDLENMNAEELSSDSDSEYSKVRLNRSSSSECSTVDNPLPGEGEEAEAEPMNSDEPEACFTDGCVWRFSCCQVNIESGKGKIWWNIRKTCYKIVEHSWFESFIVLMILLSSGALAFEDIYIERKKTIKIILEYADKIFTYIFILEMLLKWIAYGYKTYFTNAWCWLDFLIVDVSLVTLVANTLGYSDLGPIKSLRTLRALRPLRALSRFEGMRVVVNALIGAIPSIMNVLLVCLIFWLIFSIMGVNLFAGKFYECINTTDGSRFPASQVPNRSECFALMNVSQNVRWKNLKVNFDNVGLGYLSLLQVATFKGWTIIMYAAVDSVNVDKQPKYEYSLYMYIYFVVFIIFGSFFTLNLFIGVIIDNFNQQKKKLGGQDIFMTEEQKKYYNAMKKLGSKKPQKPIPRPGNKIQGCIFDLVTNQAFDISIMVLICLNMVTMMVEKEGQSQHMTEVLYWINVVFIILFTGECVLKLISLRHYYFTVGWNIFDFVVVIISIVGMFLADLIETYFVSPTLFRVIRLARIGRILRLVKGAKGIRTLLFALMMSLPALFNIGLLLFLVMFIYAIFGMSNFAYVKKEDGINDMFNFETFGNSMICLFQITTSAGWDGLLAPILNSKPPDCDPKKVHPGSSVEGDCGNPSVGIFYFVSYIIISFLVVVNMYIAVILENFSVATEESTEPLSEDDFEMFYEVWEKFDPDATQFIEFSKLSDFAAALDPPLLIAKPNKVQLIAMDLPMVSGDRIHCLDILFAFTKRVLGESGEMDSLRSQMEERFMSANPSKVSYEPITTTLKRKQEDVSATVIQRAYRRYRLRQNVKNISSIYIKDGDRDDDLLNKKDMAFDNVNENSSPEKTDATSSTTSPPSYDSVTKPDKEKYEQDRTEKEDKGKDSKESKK
human Nav1.8, sequence (Q9Y5Y9 whole entry): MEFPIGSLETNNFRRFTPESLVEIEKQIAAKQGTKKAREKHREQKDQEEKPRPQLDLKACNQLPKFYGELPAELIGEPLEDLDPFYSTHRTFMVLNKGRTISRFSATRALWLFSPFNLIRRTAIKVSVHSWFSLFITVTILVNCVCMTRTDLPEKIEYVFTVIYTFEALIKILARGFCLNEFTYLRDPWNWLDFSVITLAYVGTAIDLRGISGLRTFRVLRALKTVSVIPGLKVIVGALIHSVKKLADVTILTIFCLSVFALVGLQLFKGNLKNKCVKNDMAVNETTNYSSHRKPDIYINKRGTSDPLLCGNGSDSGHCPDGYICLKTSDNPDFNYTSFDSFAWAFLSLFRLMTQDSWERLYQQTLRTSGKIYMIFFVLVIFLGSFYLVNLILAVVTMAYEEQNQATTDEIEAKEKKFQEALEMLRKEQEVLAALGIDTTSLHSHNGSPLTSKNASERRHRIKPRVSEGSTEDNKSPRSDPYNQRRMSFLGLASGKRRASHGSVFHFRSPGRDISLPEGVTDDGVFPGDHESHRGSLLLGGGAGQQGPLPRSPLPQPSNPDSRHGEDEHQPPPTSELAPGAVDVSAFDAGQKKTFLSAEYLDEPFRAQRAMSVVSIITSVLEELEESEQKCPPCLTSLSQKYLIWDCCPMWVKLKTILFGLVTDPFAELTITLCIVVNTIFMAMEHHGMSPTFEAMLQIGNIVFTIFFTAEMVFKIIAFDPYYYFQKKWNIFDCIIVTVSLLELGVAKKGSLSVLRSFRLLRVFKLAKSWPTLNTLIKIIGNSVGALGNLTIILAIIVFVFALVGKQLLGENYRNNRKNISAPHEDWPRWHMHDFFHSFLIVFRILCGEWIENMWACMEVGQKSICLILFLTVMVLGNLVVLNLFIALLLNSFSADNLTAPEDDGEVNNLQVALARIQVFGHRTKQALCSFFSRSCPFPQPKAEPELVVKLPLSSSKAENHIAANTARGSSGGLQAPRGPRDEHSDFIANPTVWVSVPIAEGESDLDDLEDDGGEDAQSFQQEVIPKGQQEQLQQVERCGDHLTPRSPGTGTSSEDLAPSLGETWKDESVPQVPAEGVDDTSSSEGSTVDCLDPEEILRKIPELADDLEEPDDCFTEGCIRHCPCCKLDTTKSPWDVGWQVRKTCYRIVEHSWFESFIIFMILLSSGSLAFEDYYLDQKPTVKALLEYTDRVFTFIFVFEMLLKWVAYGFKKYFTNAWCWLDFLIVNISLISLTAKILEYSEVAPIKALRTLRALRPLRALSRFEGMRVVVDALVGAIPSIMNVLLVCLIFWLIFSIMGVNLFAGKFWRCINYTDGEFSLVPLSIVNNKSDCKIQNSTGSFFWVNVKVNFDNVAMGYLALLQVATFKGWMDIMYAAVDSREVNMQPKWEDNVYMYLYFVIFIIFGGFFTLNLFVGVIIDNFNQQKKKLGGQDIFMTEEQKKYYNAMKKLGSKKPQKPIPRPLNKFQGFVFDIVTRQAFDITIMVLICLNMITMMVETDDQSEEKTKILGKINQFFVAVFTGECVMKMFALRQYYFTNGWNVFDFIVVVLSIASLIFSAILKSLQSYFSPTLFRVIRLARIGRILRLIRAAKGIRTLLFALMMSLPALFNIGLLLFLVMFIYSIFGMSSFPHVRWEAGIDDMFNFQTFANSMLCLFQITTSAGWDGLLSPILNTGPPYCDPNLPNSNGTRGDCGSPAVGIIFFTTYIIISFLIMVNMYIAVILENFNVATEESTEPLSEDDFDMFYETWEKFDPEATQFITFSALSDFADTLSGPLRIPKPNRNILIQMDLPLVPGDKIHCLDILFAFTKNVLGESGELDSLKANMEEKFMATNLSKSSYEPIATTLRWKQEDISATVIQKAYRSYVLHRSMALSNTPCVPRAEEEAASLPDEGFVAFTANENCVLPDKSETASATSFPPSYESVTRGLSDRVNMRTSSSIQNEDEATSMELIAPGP

Question: Which results are given for `Cc1nnc(CN2CCN(c3cccc4c3cnn4-c3ccccc3F)C2=O)o1` [Example 44, 1-[1-(2-fluorophenyl)-1H-indazol-4-yl]-3-[(5-methyl-1,3,4-oxadiazol-2-yl)methyl]imidazolidin-2-one]?
Answer: IC50 (human Nav1.7): 2940 nM; OA MPE (%) ([1]; OA dose 30 mg/kg): 71%

Question: How did the “OA MPE (%)” value ([1]; OA dose 30 mg/kg) turn out when `O=C(CN1CCN(c2cccc3c2cnn3-c2ccccc2F)C1=O)N1CCCC(F)C1` (stereo not shown) [Example 17, 1-[1-(2-fluorophenyl)-1H-indazol-4-yl]-3-[2-(3-fluoropiperidin-1-yl)-2-oxoethyl]imidazolidin-2-one] was run?
Answer: Its value is 91%.

Question: Which IC50 (human Nav1.7) does the source give for `Cc1nccnc1CN1CCN(c2cccc3c2cnn3-c2ccccc2F)C1=O` [Example 43, 1-[1-(2-fluorophenyl)-1H-indazol-4-yl]-3-[(3-methylpyrazin-2-yl)methyl]imidazolidin-2-one] here?
Answer: The IC50 was 915 nM.

Question: And the “OA MPE (%)” value ([1]; OA dose 30 mg/kg)?
Answer: The value was 71%.

Question: How did the IC50 (human Nav1.7) turn out when `O=C1N(Cc2nnc(C3CC3)s2)CCN1c1cccc2c1cnn2-c1ccccc1F` [Example 30, 1-[(5-cyclopropyl-1,3,4-thiadiazol-2-yl)methyl]-3-[1-(2-fluorophenyl)-1H-indazol-4-yl]imidazolidin-2-one] was run?
Answer: Its IC50 is 1300 nM.

Question: And the “OA MPE (%)” value ([1]; OA dose 10 mg/kg)?
Answer: The value was 80%.

Question: With `O=C1N(CC(=O)N2C[C@@H](F)C[C@@H]2c2cc(F)ccc2F)CCN1c1cccc2c1cnn2-c1ccccc1F` [Example 18, 1-{2-[(2R,4S)-2-(2,5-difluorophenyl)-4-fluoropyrrolidin-1-yl]-2-oxoethyl}-3-[1-(2-fluorophenyl)-1H-indazol-4-yl]imidazolidin-2-one] as the compound, how does the IC50 (human Nav1.7) read?
Answer: Its IC50 is 578 nM.

Question: And the “OA MPE (%)” value ([1]; OA dose 10 mg/kg)?
Answer: Its value is 65%.

Question: How did the IC50 (human Nav1.7) turn out when `O=C1N(Cc2nc(C(F)(F)F)cs2)CCN1c1cccc2c1cnn2-c1ccccc1F` [Example 14, 1-[1-(2-fluorophenyl)-1H-indazol-4-yl]-3-{[4-(trifluoromethyl)-1,3-thiazol-2-yl]methyl}imidazolidin-2-one] was run?
Answer: Its IC50 is 618 nM.

Question: And the “OA MPE (%)” value ([1]; OA dose 30 mg/kg)?
Answer: The value was 60%.

Question: Which IC50 (human Nav1.7) does the source give for `O=C1N(c2ncccn2)CCN1c1cccc2c1cnn2-c1ccccc1F` [Example 28, 1-[1-(2-fluorophenyl)-1H-indazol-4-yl]-3-(pyrimidin-2-yl)imidazolidin-2-one] here?
Answer: Its IC50 is 457 nM.

Question: What about the “OA MPE (%)” value ([1]; OA dose 10 mg/kg) of the same compound?
Answer: Its value is 62%.

Question: How did the “OA MPE (%)” value ([1]; OA dose 10 mg/kg) turn out when `Cc1cncc(CN2CCN(c3cccc4c3cnn4-c3ccccc3F)C2=O)n1` [Example 42, 1-[1-(2-fluorophenyl)-1H-indazol-4-yl]-3-[(6-methylpyrazin-2-yl)methyl]imidazolidin-2-one] was run?
Answer: Its value is 35%.

Question: What does the source list for `O=C1N(CC(=O)N2C[C@@H]3C[C@H]2CO3)CCN1c1cccc2c1cnn2-c1ccccc1F` [Example 16, 1-[1-(2-fluorophenyl)-1H-indazol-4-yl]-3-{2-[(1S,4S)-2-oxa-5-azabicyclo[2.2.1]hept-5-yl]-2-oxoethyl}imidazolidin-2-one]?
Answer: IC50 (human Nav1.7): 738 nM; OA MPE (%) ([1]; OA dose 30 mg/kg): 67%

Question: `O=C1N(Cc2cscn2)CCN1c1cccc2c1cnn2-c1ccccc1F` [Example 39, 1-[1-(2-fluorophenyl)-1H-indazol-4-yl]-3-(1,3-thiazol-4-ylmethyl)imidazolidin-2-one] was tested. Which IC50 (human Nav1.7) did it give?
Answer: Its IC50 is 301 nM.

Question: What about the “OA MPE (%)” value ([1]; OA dose 10 mg/kg) of the same compound?
Answer: Its value is 38%.

Question: Which IC50 (human Nav1.7) does the source give for `O=C1N(Cc2cnccn2)CCN1c1cccc2c1cnn2-c1ccccc1F` [Example 35, 1-[1-(2-fluorophenyl)-1H-indazol-4-yl]-3-(pyrazin-2-ylmethyl)imidazolidin-2-one] here?
Answer: Its IC50 is 747 nM.

Question: And the “OA MPE (%)” value ([1]; OA dose 10 mg/kg)?
Answer: Its value is 19%.

Question: How did the IC50 (human Nav1.7) turn out when `C[C@H]1CN(c2cccc3c2cnn3-c2ccccc2F)C(=O)N1Cc1ncco1` [Example 38, (4S)-1-[1-(2-fluorophenyl)-1H-indazol-4-yl]-4-methyl-3-(1,3-oxazol-2-ylmethyl)imidazolidin-2-one] was run?
Answer: The IC50 was 1390 nM.

Question: What about the “OA MPE (%)” value ([1]; OA dose 10 mg/kg) of the same compound?
Answer: Its value is 33%.

Question: How did the “OA MPE (%)” value ([1]; OA dose 30 mg/kg) turn out when `O=C(CN1CCN(c2cccc3c2cnn3-c2ccccc2F)C1=O)NC1CC1` [Example 13, N-cyclopropyl-2-{3-[1-(2-fluorophenyl)-1H-indazol-4-yl]-2-oxoimidazolidin-1-yl}acetamide] was run?
Answer: The value was 47%.

Question: `O=C1N(Cc2ncco2)CCN1c1cccc2c1cnn2-c1ccc(F)cc1F` [Example 36, 1-[1-(2,4-difluorophenyl)-1H-indazol-4-yl]-3-(1,3-oxazol-2-ylmethyl)imidazolidin-2-one] was tested. Which IC50 (human Nav1.7) did it give?
Answer: The IC50 was 643 nM.

Question: And the “OA MPE (%)” value ([1]; OA dose 10 mg/kg)?
Answer: The value was 27%.

Question: `O=C1N(Cc2nnco2)CCN1c1cccc2c1cnn2-c1ccccc1F` [Example 29, 1-[1-(2-fluorophenyl)-1H-indazol-4-yl]-3-(1,3,4-oxadiazol-2-ylmethyl)imidazolidin-2-one] was tested. Which IC50 (human Nav1.7) did it give?
Answer: The IC50 was 2190 nM.

Question: What about the “OA MPE (%)” value ([1]; OA dose 10 mg/kg) of the same compound?
Answer: Its value is 46%.

Question: How did the IC50 (human Nav1.7) turn out when `O=C1N(Cc2cocn2)CCN1c1cccc2c1cnn2-c1ccc(F)cc1F` [Example 37, 1-[1-(2,4-difluorophenyl)-1H-indazol-4-yl]-3-(1,3-oxazol-4-ylmethyl)imidazolidin-2-one] was run?
Answer: Its IC50 is 392 nM.

Question: And the “OA MPE (%)” value ([1]; OA dose 10 mg/kg)?
Answer: Its value is 35%.

Question: Which IC50 (human Nav1.7) does the source give for `Cc1csc(CN2CCN(c3cccc4c3cnn4-c3ccccc3F)C2=O)n1` [Example 24, 1-[1-(2-fluorophenyl)-1H-indazol-4-yl]-3-[(4-methyl-1,3-thiazol-2-yl)methyl]imidazolidin-2-one] here?
Answer: Its IC50 is 338 nM.

Question: What about the “OA MPE (%)” value ([1]; OA dose 10 mg/kg) of the same compound?
Answer: Its value is 62%.

Question: How did the “OA MPE (%)” value ([1]; OA dose 30 mg/kg) turn out when `O=C(CN1CCN(c2cccc3c2cnn3-c2ccccc2F)C1=O)N1CCC[C@H](F)C1` [Example 54, 1-[1-(2-fluorophenyl)-1H-indazol-4-yl]-3-{2-[(3S)-3-fluoropiperidin-1-yl]-2-oxoethyl}imidazolidin-2-one] was run?
Answer: The value was 57%.

Question: How did the “OA MPE (%)” value ([1]; OA dose 10 mg/kg) turn out when `O=C1N(c2ccncc2)CCN1c1cccc2c1cnn2-c1ccccc1F` [Example 20, 1-[1-(2-fluorophenyl)-1H-indazol-4-yl]-3-(pyridin-4-yl)imidazolidin-2-one] was run?
Answer: The value was 91%.

Question: `O=C1N(Cc2nccs2)CCN1c1cccc2c1cnn2-c1ccccc1F` [Example 34, 1-[1-(2-fluorophenyl)-1H-indazol-4-yl]-3-(1,3-thiazol-2-ylmethyl)imidazolidin-2-one] was tested. Which IC50 (human Nav1.7) did it give?
Answer: The IC50 was 420 nM.

Question: And the “OA MPE (%)” value ([1]; OA dose 10 mg/kg)?
Answer: Its value is 43%.

Question: How did the IC50 (human Nav1.7) turn out when `Cc1cnc(CN2CCN(c3cccc4c3cnn4-c3ccccc3F)C2=O)o1` [Example 41, 1-[1-(2-fluorophenyl)-1H-indazol-4-yl]-3-[(5-methyl-1,3-oxazol-2-yl)methyl]imidazolidin-2-one] was run?
Answer: The IC50 was 1570 nM.

Question: What about the “OA MPE (%)” value ([1]; OA dose 10 mg/kg) of the same compound?
Answer: The value was 47%.

Question: Which results are given for `CCc1cc(CN2CCN(c3cccc4c3cnn4-c3ccccc3F)C2=O)on1` [Example 45, 1-[(3-ethyl-1,2-oxazol-5-yl)methyl]-3-[1-(2-fluorophenyl)-1H-indazol-4-yl]imidazolidin-2-one]?
Answer: IC50 (human Nav1.7): 1120 nM; OA MPE (%) ([1]; OA dose 10 mg/kg): 43%

Question: Which results are given for `CC(C)(C)C(O)CN1CCN(c2cccc3c2cnn3-c2ccccc2F)C1=O` (stereo not shown) [Example 22, 1-[1-(2-fluorophenyl)-1H-indazol-4-yl]-3-(2-hydroxy-3,3-dimethylbutyl)imidazolidin-2-one]?
Answer: IC50 (human Nav1.7): 3000 nM; OA MPE (%) ([1]; OA dose 30 mg/kg): 38%

Question: For `Cc1cnc(N2CCN(c3cccc4c3cnn4-c3ccccc3F)C2=O)nc1` [Example 33, 1-[1-(2-fluorophenyl)-1H-indazol-4-yl]-3-(5-methylpyrimidin-2-yl)imidazolidin-2-one], which IC50 (human Nav1.7) is on record?
Answer: The IC50 was 624 nM.

Question: And the “OA MPE (%)” value ([1]; OA dose 10 mg/kg)?
Answer: Its value is 17%.

Question: Which IC50 (human Nav1.7) does the source give for `O=C1N(c2cccnc2)CCN1c1cccc2c1cnn2-c1ccccc1F` [Example 19, 1-[1-(2-fluorophenyl)-1H-indazol-4-yl]-3-(pyridin-3-yl)imidazolidin-2-one] here?
Answer: The IC50 was 2920 nM.

Question: And the “OA MPE (%)” value ([1]; OA dose 10 mg/kg)?
Answer: Its value is 67%.

Question: With `O=C(CN1CCN(c2cccc3c2cnn3-c2ccccc2F)C1=O)NC1COC1` [Example 321, 2-{3-[1-(2-fluorophenyl)-1H-indazol-4-yl]-2-oxoimidazolidin-1-yl}-N-(oxetan-3-yl)acetamide] as the compound, how does the IC50 (human Nav1.7) read?
Answer: The IC50 was 5790 nM.

Question: And the IC50 (human Nav1.8)?
Answer: Its IC50 is 5.67 µM.

Question: `CC(C)(C)NC(=O)CN1CCN(c2cccc3c2cnn3-c2ccccc2F)C1=O` [Example 339, N-tert-butyl-2-{3-[1-(2-fluorophenyl)-1H-indazol-4-yl]-2-oxoimidazolidin-1-yl}acetamide] was tested. Which IC50 (human Nav1.7) did it give?
Answer: Its IC50 is 5670 nM.

Question: What about the IC50 (human Nav1.8) of the same compound?
Answer: The IC50 was 2.67 µM.
